Results published in PubChem BioAssay AID2060892 (Molecular Pharmacology Branch, DTP, NCI, 2025).

System: HOP-62 complex spheroids with HUVEC/MSC, viability
Experiment: Anticancer human tumor HOP-62 cell line growth inhibition [RAS];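 further: spheroids exposed to agents for seven days before readout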;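 on viability, T/C: 100% = DMSO vehicle control viability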
Details: for IC50: curve of first compound; for viability, T/C: stronger effect = lower value
Summary of the method: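 Multi-cell-type spheroids: tumor cells plus HUVEC endothelial cells and mesenchymal stem cells. RAS-pathway inhibitors were combined with targeted agents, each dosed in half-log steps down from clinical Cmax, or from 10 microM when Cmax was unknown.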

With `CC(=O)OC12COC1CC(O)C1(C)C(=O)C(O)C3=C(C)C(OC(=O)C(O)C(NC(=O)OC(C)(C)C)c4ccccc4)CC(O)(C(OC(=O)c4ccccc4)C21)C3(C)C` (centres undefined) + CCn1c(-c2cc(N3CCN(C)CC3)cnc2C(C)OC)c2c3cc(ccc31)-c1csc(n1)CC(NC(=O)C1CC1C)C(=O)N1CCCC(N1)C(=O)OCC(C)(C)C2 the IC50 (second compound 0.000949 µM) was < 31.6 nM, the IC50 (second compound 0.003 µM) was < 31.6 nM and the IC50 (second compound 0.00949 µM) was < 31.6 nM. The IC50 (second compound 0.03 µM) was < 31.6 nM, the IC50 (second compound 0.0949 µM) was < 31.6 nM and the IC50 (second compound 0.3 µM) was < 31.6 nM. The viability, T/C (second compound 0.000949 µM, first compound 0.0316 µM) was 41.1%, the viability, T/C (second compound 0.000949 µM, first compound 0.1 µM) was 34.9% and the viability, T/C (second compound 0.000949 µM, first compound 0.316 µM) was 28.9%. For the same molecule, the viability, T/C (second compound 0.000949 µM, first compound 1 µM) was 43.6%, the viability, T/C (second compound 0.000949 µM, first compound 3.16 µM) was 42.7% and the viability, T/C (second compound 0.000949 µM, first compound 10 µM) was 42.6%. The viability, T/C (second compound 0.003 µM, first compound 0.0316 µM) was 44.1%, the viability, T/C (second compound 0.003 µM, first compound 0.1 µM) was 38.5% and the viability, T/C (second compound 0.003 µM, first compound 0.316 µM) was 33.4%. For the same molecule, the viability, T/C (second compound 0.003 µM, first compound 1 µM) was 30.6%, the viability, T/C (second compound 0.003 µM, first compound 3.16 µM) was 36.6% and the viability, T/C (second compound 0.003 µM, first compound 10 µM) was 35%. It also gave a viability, T/C (second compound 0.00949 µM, first compound 0.0316 µM) of 42.4%, a viability, T/C (second compound 0.00949 µM, first compound 0.1 µM) of 28.5% and a viability, T/C (second compound 0.00949 µM, first compound 0.316 µM) of 31.5%. The viability, T/C (second compound 0.00949 µM, first compound 1 µM) was 37%, the viability, T/C (second compound 0.00949 µM, first compound 3.16 µM) was 35.9% and the viability, T/C (second compound 0.00949 µM, first compound 10 µM) was 33.4%. For the same molecule, the viability, T/C (second compound 0.03 µM, first compound 0.0316 µM) was 44.1%, the viability, T/C (second compound 0.03 µM, first compound 0.1 µM) was 35.1% and the viability, T/C (second compound 0.03 µM, first compound 0.316 µM) was 31.1%. For the same molecule, the viability, T/C (second compound 0.03 µM, first compound 1 µM) was 30.8%, the viability, T/C (second compound 0.03 µM, first compound 3.16 µM) was 30.4% and the viability, T/C (second compound 0.03 µM, first compound 10 µM) was 40.1%. The viability, T/C (second compound 0.0949 µM, first compound 0.0316 µM) was 32.3%, the viability, T/C (second compound 0.0949 µM, first compound 0.1 µM) was 33.6% and the viability, T/C (second compound 0.0949 µM, first compound 0.316 µM) was 31.5%. It also gave a viability, T/C (second compound 0.0949 µM, first compound 1 µM) of 32.9%, a viability, T/C (second compound 0.0949 µM, first compound 3.16 µM) of 33.6% and a viability, T/C (second compound 0.0949 µM, first compound 10 µM) of 32.6%. For the same molecule, the viability, T/C (second compound 0.3 µM, first compound 0.0316 µM) was 37%, the viability, T/C (second compound 0.3 µM, first compound 0.1 µM) was 30.9% and the viability, T/C (second compound 0.3 µM, first compound 0.316 µM) was 39%. For the same molecule, the viability, T/C (second compound 0.3 µM, first compound 1 µM) was 31.7%, the viability, T/C (second compound 0.3 µM, first compound 3.16 µM) was 27.9% and the viability, T/C (second compound 0.3 µM, first compound 10 µM) was 35.6%.
In the case of `C=CC(=O)Nc1cc(Nc2nccc(-c3cn(C)c4ccccc34)n2)c(OC)cc1N(C)CCN(C)C` + C=CC(=O)N1CCN(c2nc(OCC3CCCN3C)nc3c(F)c(-c4nc(N)cc(C)c4C(F)(F)F)c(Cl)cc23)C(C)C1, the IC50 (second compound 0.00316 µM) is reported as 628 nM, the IC50 (second compound 0.01 µM) is reported as 372 nM and the IC50 (second compound 0.0316 µM) is reported as 131 nM. It also gave an IC50 (second compound 0.1 µM) of 280 nM, an IC50 (second compound 0.316 µM) of 308 nM and an IC50 (second compound 1 µM) of 333 nM. The viability, T/C (second compound 0.00316 µM, first compound 0.00316 µM) was 82.4%, the viability, T/C (second compound 0.00316 µM, first compound 0.01 µM) was 74.9% and the viability, T/C (second compound 0.00316 µM, first compound 0.0316 µM) was 72.5%. For the same molecule, the viability, T/C (second compound 0.00316 µM, first compound 0.1 µM) was 74.1%, the viability, T/C (second compound 0.00316 µM, first compound 0.316 µM) was 64.1% and the viability, T/C (second compound 0.00316 µM, first compound 1 µM) was 40.5%. The viability, T/C (second compound 0.01 µM, first compound 0.00316 µM) was 74%, the viability, T/C (second compound 0.01 µM, first compound 0.01 µM) was 66.6% and the viability, T/C (second compound 0.01 µM, first compound 0.0316 µM) was 65.7%. It also gave a viability, T/C (second compound 0.01 µM, first compound 0.1 µM) of 66.4%, a viability, T/C (second compound 0.01 µM, first compound 0.316 µM) of 52.9% and a viability, T/C (second compound 0.01 µM, first compound 1 µM) of 29.4%. For the same molecule, the viability, T/C (second compound 0.0316 µM, first compound 0.00316 µM) was 74.9%, the viability, T/C (second compound 0.0316 µM, first compound 0.01 µM) was 69.9% and the viability, T/C (second compound 0.0316 µM, first compound 0.0316 µM) was 52.6%. It also gave a viability, T/C (second compound 0.0316 µM, first compound 0.1 µM) of 51.5%, a viability, T/C (second compound 0.0316 µM, first compound 0.316 µM) of 51.3% and a viability, T/C (second compound 0.0316 µM, first compound 1 µM) of 35.2%. It also gave a viability, T/C (second compound 0.1 µM, first compound 0.00316 µM) of 65.7%, a viability, T/C (second compound 0.1 µM, first compound 0.01 µM) of 66.1% and a viability, T/C (second compound 0.1 µM, first compound 0.0316 µM) of 62.7%. For the same molecule, the viability, T/C (second compound 0.1 µM, first compound 0.1 µM) was 56.4%, the viability, T/C (second compound 0.1 µM, first compound 0.316 µM) was 50.9% and the viability, T/C (second compound 0.1 µM, first compound 1 µM) was 29.4%. For the same molecule, the viability, T/C (second compound 0.316 µM, first compound 0.00316 µM) was 59.2%, the viability, T/C (second compound 0.316 µM, first compound 0.01 µM) was 58.1% and the viability, T/C (second compound 0.316 µM, first compound 0.0316 µM) was 59.2%. For the same molecule, the viability, T/C (second compound 0.316 µM, first compound 0.1 µM) was 57.9%, the viability, T/C (second compound 0.316 µM, first compound 0.316 µM) was 48.5% and the viability, T/C (second compound 0.316 µM, first compound 1 µM) was 33.8%. For the same molecule, the viability, T/C (second compound 1 µM, first compound 0.00316 µM) was 63.9%, the viability, T/C (second compound 1 µM, first compound 0.01 µM) was 53.5% and the viability, T/C (second compound 1 µM, first compound 0.0316 µM) was 68.9%. For the same molecule, the viability, T/C (second compound 1 µM, first compound 0.1 µM) was 56.9%, the viability, T/C (second compound 1 µM, first compound 0.316 µM) was 49.8% and the viability, T/C (second compound 1 µM, first compound 1 µM) was 34.1%.
